Legend:
Fms = molecular target: T1, Fms (Homo sapiens, UniProt P07333); experiment: Fms biochemical assay (AlphaScreen or 33P-ATP); details: under the test conditions employed; read-out: IC50 toward kinase Fms
T1 construct: purchased Upstate Biotech 14-551
From the text: Each sample was at 5% DMSO.

Kit = molecular target: T2, Kit (Homo sapiens, UniProt P10721); experiment: c-kit biochemical assay (AlphaScreen or 33P-ATP); details: under the test conditions employed; read-out: IC50 toward kinase Kit
T2 construct: P1332.N6 BI PTP KIT M552-K948-X COD; made in house; host or cells: E. coli BL21(DE3)RIL, co-expressed with PTP1B
Method in brief: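 Kinase activity read by AlphaScreen or 33P-ATP incorporation, with c-kit enzyme at 1 ng per sample. The enzyme was either commercial or a recombinant human kit construct made from a gene-synthesized coding sequence.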

B-Raf V600E = B-Raf V600E (Homo sapiens, UniProt P15056, V600E); experiment: B-Raf V600E kinase activity assay; assay type: biochemical; details: under the test conditions employed; read-out: IC50 toward kinase B-Raf V600E
Fak = Fak (Homo sapiens, UniProt Q05397); experiment: Fak kinase activity assay; assay type: biochemical; details: under the test conditions employed; read-out: IC50 toward kinase Fak
B-Raf = B-Raf (Homo sapiens, UniProt P15056); experiment: B-Raf kinase activity assay; assay type: biochemical; details: under the test conditions employed; read-out: IC50 toward kinase B-Raf
FGFR = FGFR (Homo sapiens, UniProt P11362); experiment: FGFR kinase activity assay; assay type: biochemical; details: under the test conditions employed; read-out: IC50 toward kinase FGFR
c-Raf-1 = c-Raf-1 (Homo sapiens, UniProt P04049); experiment: c-Raf-1 kinase activity assay; assay type: biochemical; details: under the test conditions employed; read-out: IC50 toward kinase c-Raf-1
Kdr = Kdr (Homo sapiens, UniProt P35968); experiment: Kdr kinase activity assay; assay type: biochemical; details: under the test conditions employed; read-out: IC50 toward kinase Kdr
HGK = HGK (Homo sapiens, UniProt O95819); experiment: HGK (MAP4K4) biochemical assay (AlphaScreen); details: under the test conditions employed; read-out: IC50 toward kinase HGK
Method in brief: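 AlphaScreen kinase assay with 0.5 ng MAP4K4 per sample and 10 nM biotin-ERM substrate, reacted 40 min at room temperature. Stopped with EDTA buffer containing phospho-ERM antibody (1:1000) plus donor and protein A acceptor beads (1 μg/ml final); signal tracks substrate phosphorylation.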

Flt1 = Flt1 (Homo sapiens, UniProt P17948); experiment: Flt1 kinase activity assay; assay type: biochemical; details: under the test conditions employed; read-out: IC50 toward kinase Flt1
TrkA = molecular target: T3, TrkA (Homo sapiens, UniProt P04629); experiment: TrkA biochemical assay (AlphaScreen); details: under the test conditions employed; read-out: IC50 toward kinase TrkA
T3 construct: purchased Upstate Biotech 14-571
Procedure: Compounds tested were dissolved in DMSO (1 μL) and added to a white 384-well plate (Costar #3705). […] Each sample was at 5% DMSO. The plate was then incubated for 40 minutes at room temperature.

Src = Src (Homo sapiens, UniProt P12931); experiment: Src kinase activity assay; assay type: biochemical; details: under the test conditions employed; read-out: IC50 toward kinase Src
Btk = Btk (Homo sapiens, UniProt Q06187); experiment: Btk kinase activity assay; assay type: biochemical; details: under the test conditions employed; read-out: IC50 toward kinase Btk

Measured: IC50

T3 sequence (P04629 33-796): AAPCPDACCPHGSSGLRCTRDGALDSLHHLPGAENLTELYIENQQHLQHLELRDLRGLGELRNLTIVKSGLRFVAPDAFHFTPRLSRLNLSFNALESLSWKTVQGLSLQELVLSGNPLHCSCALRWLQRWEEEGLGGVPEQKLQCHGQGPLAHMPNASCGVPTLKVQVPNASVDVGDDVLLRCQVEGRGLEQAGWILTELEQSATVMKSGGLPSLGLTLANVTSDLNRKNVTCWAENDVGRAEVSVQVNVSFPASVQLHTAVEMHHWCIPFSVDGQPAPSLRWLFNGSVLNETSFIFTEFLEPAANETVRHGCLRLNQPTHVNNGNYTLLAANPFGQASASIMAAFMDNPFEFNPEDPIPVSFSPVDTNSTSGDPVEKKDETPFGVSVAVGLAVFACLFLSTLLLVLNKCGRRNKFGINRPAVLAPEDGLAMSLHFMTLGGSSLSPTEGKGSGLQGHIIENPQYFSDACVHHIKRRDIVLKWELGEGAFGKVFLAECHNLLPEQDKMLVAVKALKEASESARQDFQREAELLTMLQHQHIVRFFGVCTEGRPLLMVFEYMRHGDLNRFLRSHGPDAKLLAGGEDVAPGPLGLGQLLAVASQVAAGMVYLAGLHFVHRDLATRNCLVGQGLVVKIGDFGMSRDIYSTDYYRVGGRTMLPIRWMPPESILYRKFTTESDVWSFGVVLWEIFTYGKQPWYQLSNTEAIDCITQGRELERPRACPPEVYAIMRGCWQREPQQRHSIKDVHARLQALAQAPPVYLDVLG
Btk, sequence (Q06187 whole entry): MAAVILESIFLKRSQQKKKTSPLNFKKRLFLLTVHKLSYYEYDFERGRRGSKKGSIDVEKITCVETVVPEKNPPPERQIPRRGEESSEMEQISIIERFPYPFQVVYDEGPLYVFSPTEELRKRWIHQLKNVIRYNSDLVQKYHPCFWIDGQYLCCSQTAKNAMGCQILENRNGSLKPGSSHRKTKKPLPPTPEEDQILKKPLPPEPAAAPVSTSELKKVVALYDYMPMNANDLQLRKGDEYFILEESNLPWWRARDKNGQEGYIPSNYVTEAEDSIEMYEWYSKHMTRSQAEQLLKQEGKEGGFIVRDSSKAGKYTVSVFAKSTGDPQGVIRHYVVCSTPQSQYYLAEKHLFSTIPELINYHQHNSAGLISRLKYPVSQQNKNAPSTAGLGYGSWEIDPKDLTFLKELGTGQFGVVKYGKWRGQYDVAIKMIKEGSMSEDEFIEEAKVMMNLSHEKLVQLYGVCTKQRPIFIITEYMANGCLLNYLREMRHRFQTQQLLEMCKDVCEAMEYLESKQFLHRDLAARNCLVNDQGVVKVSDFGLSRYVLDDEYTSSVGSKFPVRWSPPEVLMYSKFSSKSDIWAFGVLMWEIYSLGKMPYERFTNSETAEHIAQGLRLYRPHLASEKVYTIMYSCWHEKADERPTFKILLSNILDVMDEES
Kdr, sequence (P35968 20-1356): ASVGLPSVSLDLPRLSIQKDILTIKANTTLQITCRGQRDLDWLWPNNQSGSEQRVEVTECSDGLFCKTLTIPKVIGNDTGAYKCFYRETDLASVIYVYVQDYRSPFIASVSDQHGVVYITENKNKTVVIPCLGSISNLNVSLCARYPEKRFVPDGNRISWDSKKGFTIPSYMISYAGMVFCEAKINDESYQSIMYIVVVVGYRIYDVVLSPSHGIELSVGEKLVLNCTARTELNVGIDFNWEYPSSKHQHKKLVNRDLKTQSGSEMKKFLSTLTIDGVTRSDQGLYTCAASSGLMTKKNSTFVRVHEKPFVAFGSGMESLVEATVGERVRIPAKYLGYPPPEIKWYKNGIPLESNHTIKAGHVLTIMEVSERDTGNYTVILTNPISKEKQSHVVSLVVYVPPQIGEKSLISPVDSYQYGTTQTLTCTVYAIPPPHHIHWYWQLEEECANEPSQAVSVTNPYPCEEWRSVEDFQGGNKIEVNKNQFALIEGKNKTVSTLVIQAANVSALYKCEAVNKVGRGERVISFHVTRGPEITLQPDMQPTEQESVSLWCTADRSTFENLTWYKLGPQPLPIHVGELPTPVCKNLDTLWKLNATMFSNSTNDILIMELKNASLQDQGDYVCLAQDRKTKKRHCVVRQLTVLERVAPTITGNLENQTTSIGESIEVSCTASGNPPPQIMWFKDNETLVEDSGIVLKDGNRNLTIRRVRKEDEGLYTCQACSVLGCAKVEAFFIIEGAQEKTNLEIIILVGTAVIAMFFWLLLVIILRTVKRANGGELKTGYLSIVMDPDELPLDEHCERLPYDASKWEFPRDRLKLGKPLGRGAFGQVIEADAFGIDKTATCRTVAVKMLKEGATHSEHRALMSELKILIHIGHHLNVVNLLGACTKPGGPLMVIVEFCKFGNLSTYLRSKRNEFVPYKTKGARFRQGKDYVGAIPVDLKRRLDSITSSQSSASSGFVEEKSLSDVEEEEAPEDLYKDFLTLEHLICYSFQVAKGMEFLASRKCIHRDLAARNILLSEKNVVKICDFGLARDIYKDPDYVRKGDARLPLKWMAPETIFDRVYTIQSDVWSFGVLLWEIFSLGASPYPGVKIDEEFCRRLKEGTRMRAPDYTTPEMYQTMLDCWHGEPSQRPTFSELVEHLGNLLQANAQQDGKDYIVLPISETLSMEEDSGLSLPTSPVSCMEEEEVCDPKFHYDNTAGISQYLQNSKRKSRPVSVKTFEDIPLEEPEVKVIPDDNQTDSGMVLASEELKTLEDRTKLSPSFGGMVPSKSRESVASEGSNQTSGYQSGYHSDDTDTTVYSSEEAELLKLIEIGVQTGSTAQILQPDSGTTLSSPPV
FGFR, sequence (P11362 22-822): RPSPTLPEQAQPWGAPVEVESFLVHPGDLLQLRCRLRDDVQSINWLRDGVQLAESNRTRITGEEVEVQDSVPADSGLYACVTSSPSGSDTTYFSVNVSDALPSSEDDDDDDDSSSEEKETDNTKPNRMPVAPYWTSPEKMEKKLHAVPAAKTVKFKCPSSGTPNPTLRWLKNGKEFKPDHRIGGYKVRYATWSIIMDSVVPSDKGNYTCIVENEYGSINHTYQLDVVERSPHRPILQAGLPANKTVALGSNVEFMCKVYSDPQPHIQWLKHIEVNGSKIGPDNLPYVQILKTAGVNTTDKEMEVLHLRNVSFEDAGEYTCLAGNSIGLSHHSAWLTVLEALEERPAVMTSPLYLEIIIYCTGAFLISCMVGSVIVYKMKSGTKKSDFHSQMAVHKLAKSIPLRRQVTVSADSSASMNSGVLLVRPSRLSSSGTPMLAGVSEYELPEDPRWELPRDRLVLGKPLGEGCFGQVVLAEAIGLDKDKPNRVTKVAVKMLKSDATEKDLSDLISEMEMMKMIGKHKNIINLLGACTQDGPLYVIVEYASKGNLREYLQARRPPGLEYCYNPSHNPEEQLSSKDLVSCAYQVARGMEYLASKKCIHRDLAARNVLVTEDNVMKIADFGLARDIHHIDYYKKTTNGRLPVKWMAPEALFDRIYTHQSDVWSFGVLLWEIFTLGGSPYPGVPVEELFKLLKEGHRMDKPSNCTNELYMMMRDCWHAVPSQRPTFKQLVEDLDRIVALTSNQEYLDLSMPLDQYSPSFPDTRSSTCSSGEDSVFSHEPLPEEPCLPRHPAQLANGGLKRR
c-Raf-1, sequence (P04049 whole entry): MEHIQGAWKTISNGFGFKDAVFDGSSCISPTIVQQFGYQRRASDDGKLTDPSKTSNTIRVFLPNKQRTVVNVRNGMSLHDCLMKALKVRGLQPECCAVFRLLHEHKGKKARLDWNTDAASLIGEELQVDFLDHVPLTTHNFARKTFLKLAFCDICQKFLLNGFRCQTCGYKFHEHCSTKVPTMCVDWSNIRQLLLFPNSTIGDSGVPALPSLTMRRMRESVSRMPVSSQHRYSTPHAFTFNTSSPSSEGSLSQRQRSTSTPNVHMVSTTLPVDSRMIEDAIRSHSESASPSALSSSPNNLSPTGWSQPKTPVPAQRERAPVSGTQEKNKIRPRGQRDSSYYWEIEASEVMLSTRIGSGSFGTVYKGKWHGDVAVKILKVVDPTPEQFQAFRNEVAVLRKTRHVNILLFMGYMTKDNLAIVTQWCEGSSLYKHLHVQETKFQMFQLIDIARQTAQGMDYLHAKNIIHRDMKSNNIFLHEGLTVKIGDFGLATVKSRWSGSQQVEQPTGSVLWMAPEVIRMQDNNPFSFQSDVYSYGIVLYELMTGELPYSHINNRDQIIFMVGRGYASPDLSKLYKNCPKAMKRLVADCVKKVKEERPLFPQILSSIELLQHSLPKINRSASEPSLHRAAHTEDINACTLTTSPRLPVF
B-Raf V600E, sequence (P15056 whole entry V600E): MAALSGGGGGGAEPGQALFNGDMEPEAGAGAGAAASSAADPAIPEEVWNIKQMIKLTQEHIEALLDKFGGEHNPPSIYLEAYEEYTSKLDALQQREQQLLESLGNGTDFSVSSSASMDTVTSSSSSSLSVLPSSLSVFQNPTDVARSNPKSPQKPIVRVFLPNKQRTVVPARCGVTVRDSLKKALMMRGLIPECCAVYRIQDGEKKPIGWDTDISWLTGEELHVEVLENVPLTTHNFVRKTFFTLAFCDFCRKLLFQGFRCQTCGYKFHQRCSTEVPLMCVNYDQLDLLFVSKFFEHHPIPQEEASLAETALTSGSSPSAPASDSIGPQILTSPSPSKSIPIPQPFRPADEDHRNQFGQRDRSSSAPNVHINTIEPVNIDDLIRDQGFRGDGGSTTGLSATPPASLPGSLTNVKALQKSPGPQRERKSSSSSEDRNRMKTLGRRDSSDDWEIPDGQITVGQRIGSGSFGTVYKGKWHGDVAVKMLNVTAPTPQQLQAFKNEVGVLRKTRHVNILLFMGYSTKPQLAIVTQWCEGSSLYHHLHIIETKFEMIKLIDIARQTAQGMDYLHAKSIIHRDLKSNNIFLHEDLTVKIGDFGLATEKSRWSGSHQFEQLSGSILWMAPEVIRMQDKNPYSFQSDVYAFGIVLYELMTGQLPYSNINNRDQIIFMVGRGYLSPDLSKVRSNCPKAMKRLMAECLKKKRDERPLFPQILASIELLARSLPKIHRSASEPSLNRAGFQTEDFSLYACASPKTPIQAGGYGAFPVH
B-Raf, sequence (P15056 whole entry): as the sequence (P15056 whole entry V600E) above, with E600V counted along it

Clc1ccc(COc2ccc(Cc3c[nH]c4ncccc34)cc2Cl)cc1 [P-1449, 3-[3-chloro-4-(4-chloro-benzyloxy)-benzyl]-1H-pyrrolo[2,3-b]pyridine]
≤ 10 µM: Fms | Kit | B-Raf V600E | Fak

COc1cc(OCc2ccc(Cl)cc2)ccc1Cc1c[nH]c2ncccc12 [P-1450, 3-[4-(4-chloro-benzyloxy)-2-methoxy-benzyl]-1H-pyrrolo[2,3-b]pyridine]
≤ 10 µM: Fms | Kit | B-Raf V600E | Fak

COCCOc1ccc(F)c(C(=O)c2c[nH]c3ncc(Br)cc23)c1F [P-1453, (5-Bromo-1H-pyrrolo[2,3-b]pyridin-3-yl)-[2,6-difluoro-3-(2-methoxy-ethoxy)-phenyl]-methanone]
≤ 10 µM: B-Raf | Fms | Kit | B-Raf V600E | FGFR | Fak | c-Raf-1

COCCOc1ccc(F)c(Cc2c[nH]c3ncc(Br)cc23)c1F [P-1454, 5-Bromo-3-[2,6-difluoro-3-(2-methoxy-ethoxy)-benzyl]1H-pyrrolo[2,3-b]pyridine]
≤ 10 µM: B-Raf | Fms | Kit | B-Raf V600E | FGFR | c-Raf-1

Fc1ccc(OCc2ccccc2)c(F)c1Cc1c[nH]c2ncc(-c3cccnc3)cc12 [P-1455, 3-(3-Benzyloxy-2,6-difluoro-benzyl)-5-pyridin-3-yl-1H-pyrrolo[2,3-b]pyridine]
≤ 10 µM: B-Raf | Fms | Kit | B-Raf V600E | FGFR | Fak | c-Raf-1

Fc1cc(OCc2nc3ccccc3[nH]2)c(F)cc1Cc1c[nH]c2ncc(Br)cc12 [P-2107, 2-[4-(5-Bromo-1H-pyrrolo[2,3-b]pyridin-3-ylmethyl)-2,5-difluoro-phenoxymethyl]-1H-benzoimidazole]
≤ 10 µM: Kdr | Fms | Kit | HGK | c-Raf-1 | Flt1 | TrkA

Cn1cc(-c2cnc3[nH]cc(Cc4cc(F)c(OCc5nc6ccccc6[nH]5)cc4F)c3c2)cn1 [P-2108, 2-{2,5-Difluoro-4-[5-(1-methyl-1H-pyrazol-4-yl)-1H-pyrrolo[2,3-b]pyridin-3-ylmethyl]-phenoxymethyl}-1H-benzoimidazole]
≤ 10 µM: Src | Kdr | Fms | Kit | Flt1 | TrkA

CCOc1c(OCc2ccc(N(CC)CC)nc2)cccc1C(=O)c1c[nH]c2ncccc12 [P-2143, [3-(6-Diethylamino-pyridin-3-ylmethoxy)-2-ethoxy-phenyl]-(1H-pyrrolo[2,3-b]pyridin-3-yl)-methanone]
≤ 10 µM: Btk | Fms | c-Raf-1

CCOc1c(OCc2ccc(N3CCCC3)nc2)cccc1C(=O)c1c[nH]c2ncccc12 [P-2144, [2-Ethoxy-3-(6-pyrrolidin-1-yl-pyridin-3-ylmethoxy)-phenyl]-(1H-pyrrolo[2,3-b]pyridin-3-yl)-methanone]
≤ 10 µM: Btk | B-Raf | Fms

COCCOCCOc1cc(Cl)c(Cc2c[nH]c3ncc(Cl)cc23)cc1F [P-2155, 5-chloro-3-2-chloro-5-fluoro-4-[2-(2-methoxy-ethoxy)-ethoxy]-benzyl-1H-pyrrolo[2,3-b]pyridine]
≤ 10 µM: Kdr | Fms | FGFR | c-Raf-1

Cn1cc(-c2cnc3[nH]cc(Cc4cc(F)c(O)cc4F)c3c2)cn1 [P-2161, 2,5-difluoro-4-[5-(1-methyl-1H-pyrazol-4-yl)-1H-pyrrolo[2,3-b]pyridin-3-ylmethyl]-phenol]
≤ 10 µM: Btk | Kdr | Fms | Kit | Flt1

Cc1nc(C)c(COc2ccc(F)c(C(=O)c3c[nH]c4ncc(Cl)cc34)c2F)s1 [P-2162, (5-Chloro-1H-pyrrolo[2,3-b]pyridin-3-yl)-[3-(2,4-dimethyl-thiazol-5-ylmethoxy)-2,6-difluoro-phenyl]-methanone]
≤ 10 µM: Btk | Kdr | Fms | Kit

O=C(c1c(F)ccc(OCc2ccc(C(F)(F)F)nc2)c1F)c1c[nH]c2ncc(Cl)cc12 [P-2163, (5-Chloro-1H-pyrrolo[2,3-b]pyridin-3-yl)-[2,6-difluoro-3-(6-trifluoromethyl-pyridin-3-ylmethoxy)-phenyl]-methanone]
≤ 10 µM: Btk | Kdr | Fms | Kit

Cc1nc(COc2ccc(F)c(C(=O)c3c[nH]c4ncc(Cl)cc34)c2F)c(C)o1 [P-2164, (5-Chloro-1H-pyrrolo[2,3-b]pyridin-3-yl)-[3-(2,5-dimethyl-oxazol-4-ylmethoxy)-2,6-difluoro-phenyl]-methanone]
≤ 10 µM: Btk | B-Raf | Kdr | Fms | Kit | B-Raf V600E | Flt1

COc1cc(Cc2c[nH]c3ncc(Br)cc23)c(F)cc1OCc1nc2ccccc2[nH]1 [P-2181, 2-[4-(5-Bromo-1H-pyrrolo[2,3-b]pyridin-3-ylmethyl)-5-fluoro-2-methoxy-phenoxymethyl]-1H-benzoimidazole]
≤ 10 µM: Fms | HGK | Fak | TrkA

N#Cc1cnc2[nH]cc(Cc3cc(F)c(OCc4nc5ccccc5[nH]4)cc3F)c2c1 [P-2185, 3-[4-(1H-Benzoimidazol-2-ylmethoxy)-2,5-difluoro-benzyl]-1H-pyrrolo[2,3-b]pyridine-5-carbonitrile]
not listed: Fak | FGFR | Src | Btk
≤ 10 µM: all other assays above

Reference: patent US7872018B2, “Compounds and methods for kinase modulation, and indications therefor” (Plexxikon, Inc., priority 2006, dated 2011)
